Here are results for four compounds from ChEMBL document CHEMBL1159354, “Sphingolipids from Bombycis Corpus 101A and their neurotrophic effects” (J Nat Prod, 2003).

Assay [1] deals with PC-12. The experiment in a line: Induction of neurite outgrowth in rat PC12 cells assessed as neurite length at 10 uM. The format is functional, cell-based.
The test system of assay [2] is PC-12. Description: Induction of neurite outgrowth in rat PC12 cells assessed as neurite length. The format is functional, cell-based.

The source made the active and inactive calls. No cut-off for these calls is given here.

Regarding `CCCCCCC/C=C/C=C/[C@@H](O)[C@H](CO)NC(=O)CCCCCCCCCCCCCCCCCCCCC`, the outcome in the assay with PC-12 [1] was Active. Same read-out and setting: to `CCCCCCC/C=C/C=C/[C@@H](O)[C@H](CO)NC(=O)CCCCCCCCCCCCCCCCCCC` belongs “Active”.

On to `CCCCCCCCC/C=C/[C@@H](O)[C@H](CO)NC(=O)CCCCCCCCCCCCCCCCCCC`, for which the result in the assay with PC-12 [2] was Active. The same measure, in the same setting: with `CCCCCCCCC/C=C/[C@@H](O)[C@H](CO)NC(=O)CCCCCCCCCCCCCCCCC` the entry was “Active”.
